Reference: patent US11932634B2 (Gilead Sciences, Inc., priority 2021, dated 2024)

Experiments:
human DGKα = target: T1, human DGKα (Homo sapiens, UniProt P23743); test: DGKα Biochemical Activity Assay (ADP-Glo);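 also: recombinant enzyme converting diacylglycerol in lipid micelles with ATP, ADP formed detected by luminescence, IC50 from a four-parameter nonlinear fit, geometric mean across experiments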
T1 construct: purchased Carna Biosciences'; inferred from the same paragraph's 'obtained from Carna Biosciences')
T1 sequence (P23743 whole entry): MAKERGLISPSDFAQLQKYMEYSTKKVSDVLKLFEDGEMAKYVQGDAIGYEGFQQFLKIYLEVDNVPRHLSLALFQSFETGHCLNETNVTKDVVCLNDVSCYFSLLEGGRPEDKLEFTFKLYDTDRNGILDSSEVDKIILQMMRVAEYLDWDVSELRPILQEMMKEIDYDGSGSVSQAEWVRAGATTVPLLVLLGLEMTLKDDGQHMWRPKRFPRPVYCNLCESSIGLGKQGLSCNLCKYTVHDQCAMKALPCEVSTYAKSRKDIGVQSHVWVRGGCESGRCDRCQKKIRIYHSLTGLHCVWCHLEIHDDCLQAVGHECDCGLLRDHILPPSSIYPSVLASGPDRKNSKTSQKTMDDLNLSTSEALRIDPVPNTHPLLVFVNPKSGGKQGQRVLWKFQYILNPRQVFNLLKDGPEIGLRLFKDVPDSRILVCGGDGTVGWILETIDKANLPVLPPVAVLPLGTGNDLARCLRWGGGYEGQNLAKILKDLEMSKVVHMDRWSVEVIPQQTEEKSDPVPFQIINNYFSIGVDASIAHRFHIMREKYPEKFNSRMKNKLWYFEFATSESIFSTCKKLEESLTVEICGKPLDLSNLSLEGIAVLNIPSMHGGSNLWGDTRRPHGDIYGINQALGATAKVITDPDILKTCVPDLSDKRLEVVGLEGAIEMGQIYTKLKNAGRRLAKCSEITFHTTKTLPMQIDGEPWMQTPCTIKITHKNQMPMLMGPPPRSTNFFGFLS
Excerpt: Alternatively, the enzymatic activity of human DGKα was monitored in a biochemical assay in the presence or absence of compounds and using micelles containing 18:1 Diacylglycerol (DAG), 16:0-18:1 PS (POPS) and Octylglucoside as substrate. DGKα activity led to conversion of DAG and ATP to Phosphatidic Acid (PA) and ADP. Levels of ADP were monitored by bioluminescence using the ADP-Glo Kinase Assay (Promega) and were indicative of DGKα activity.
Ten nanoliters of test compound dissolved in DMSO at various concentrations were dispensed into a 384-well low volume nonbinding service white plates (Corning #3824) using a Labcyte Echo instrument. Recombinant DGKα Biosciences) in assay buffer (5 μL in 50 mM MOPS [3-(N-morpholino) propanesulfonic acid], pH 7.2; 0.0025% Triton X-100; 1 mM dithiothreitol; 5 mM MgCl2, 200 μM ATP) was added to the compound-containing plate and was incubated for 15 minutes at 25° C. A substrate solution (5 μL in 1.7 mM 1,2-dioleoyl-sn-glycerol [18:1 DAG], 13.5 mM 1-palmitoyl-2-oleoyl-sn-glycero-3-phospho-L-serine [16:0-18:1 PS](POPS), 2 μM CaCl2), 100 mM Octylglucoside (OG), 1 mM DTT) (obtained from Carna Biosciences) diluted in DGK ALPHA assay buffer was then added to start the reaction. Final concentrations were 1 nM DGKα, 100 μM ATP, 1 μM calcium chloride, 0.85 mM 1,2-dioleoyl-sn-glycerol (18:1 DAG), 6.75 mM 1-palmitoyl-2-oleoyl-sn-glycero-3-phospho-L-serine (16:0-18:1 PS) (POPS), 1 μM CaCl2), 50 mM Octylglucoside (OG) and 5 mM MgCl2. The reaction mixture was incubated at 25° C. for 1 hour. ADP-Glo Reagent (10 μL, 10 mM Mg added) provided by the kit was added to each well and incubated at 25° C. for 40 minutes. Then, 20 μL of Kinase Detection Reagent was added and incubated at 25° C. for 40 minutes. Luciferase activity of each well was measured via luminescence on an Envision plate reader (PerkinElmer).
Least squares curve fittings were performed using a four-parameter variable slope nonlinear regression model. […] IC50 values from multiple experiments were averaged by geometric mean and the standard deviation was calculated.

[1] = test system: Jurkat NFκB-luciferase cells; test: Jurkat NFκB-Luciferase Assay; format: cell-based; details: Homo sapiens; Jurkat NFκB-luciferase cells activated with anti-CD3 antibody (OKT3), 2.5 hrs at 37° C., One-Glo Ex; geometric mean; read-out: DGK NFKb Luciferase EC50;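 also: bioluminescence read-out normalized to DMSO basal activation and to maximum enhancement at 1 µM compound, rising signal indicating stronger T-cell activation through DGKα inhibition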

Structure (SMILES) | IC50 (human DGKα) [µM] | EC50 [1] [µM]
Cn1c(=O)nc(N(CC(F)(F)F)c2cc(F)cc(C#CC3(C(F)(F)F)CC3)c2)c2c(F)cccc21 [Example 31, 5-fluoro-4-[3-fluoro-N-(2,2,2-trifluoroethyl)-5-[2-[1-(trifluoromethyl)cyclopropyl]ethynyl]anilino]-1-methyl-quinazolin-2-one] | 0.0457 | 0.00289
Cn1c(=O)nc(N(CC(F)(F)F)c2cc(F)cc(C#CC3(C(F)(F)F)CC3)c2)c2ccc(Cl)cc21 [Example 32, 7-chloro-4-[3-fluoro-N-(2,2,2-trifluoroethyl)-5-[2-[1-(trifluoromethyl)cyclopropyl]ethynyl]anilino]-1-methyl-quinazolin-2-one] | 0.123 | 0.00102
O=c1nc(N(CC(F)F)c2cc(F)cc(C#CC3(C(F)(F)F)CC3)c2)c2ccc(Cl)cc2n1CCO [Example 33, 7-chloro-4-[N-(2,2-difluoroethyl)-3-fluoro-5-[2-[1-(trifluoromethyl)cyclopropyl]ethynyl]anilino]-1-(2-hydroxyethyl)quinazolin-2-one] | 0.284 | 0.00365
CC(C)(O)C#Cc1cc(F)cc(N(CC(F)F)c2nc(=O)[nH]c3cccc(F)c23)c1 [Example 34, 4-[N-(2,2-difluoroethyl)-3-fluoro-5-(3-hydroxy-3-methyl-but-1-ynyl)anilino]-5-fluoro-1H-quinazolin-2-one] | 0.0328 | 0.0134
O=c1nc(N(CC(F)F)c2cc(F)cc(C#CC3(C(F)(F)F)CC3)c2)c2c(F)c(F)ccc2[nH]1 [Example 35, 4-[N-(2,2-difluoroethyl)-3-fluoro-5-[2-[1-(trifluoromethyl)cyclopropyl]ethynyl]anilino]-5,6-difluoro-1H-quinazolin-2-one] | 0.159 | 0.000999
CCn1c(=O)nc(N(CC(F)F)c2cc(F)cc(C#CC3(C(F)(F)F)CC3)c2)c2c(F)cccc21 [Example 36, 4-[N-(2,2-difluoroethyl)-3-fluoro-5-[2-[1-(trifluoromethyl)cyclopropyl]ethynyl]anilino]-1-ethyl-5-fluoro-quinazolin-2-one] | 0.184 | 0.0211
CCn1c(=O)nc(N(CC(F)F)c2cc(F)cc(C#CC(C)(C)O)c2)c2c(F)cccc21 [Example 37, 4-[N-(2,2-difluoroethyl)-3-fluoro-5-(3-hydroxy-3-methyl-but-1-ynyl)anilino]-1-ethyl-5-fluoro-quinazolin-2-one] | 0.0543 | 0.0396
[2H]C([2H])([2H])n1c(=O)nc(N(CC(F)F)c2cc(F)cc(C#CC(C)(C)O)c2)c2c(F)cccc21 [Example 38, 4-[N-(2,2-difluoroethyl)-3-fluoro-5-(3-hydroxy-3-methyl-but-1-ynyl)anilino]-5-fluoro-1-(trideuteriomethyl)quinazolin-2-one] | 0.016 | 0.0111
O=c1nc(N(CC(F)F)c2cc(F)cc(-c3cnc(C4CC4)cn3)c2)c2c(F)c(F)ccc2[nH]1 [Example 39, 4-[3-(5-cyclopropylpyrazin-2-yl)-N-(2,2-difluoroethyl)-5-fluoro-anilino]-5,6-difluoro-1H-quinazolin-2-one] | 0.0134 | 0.000705
O=c1nc(N2CCCc3c(C#CC4(C(F)(F)F)CC4)cccc32)c2c(F)c(F)ccc2[nH]1 [Example 40, 5,6-difluoro-4-[5-[2-[1-(trifluoromethyl)cyclopropyl]ethynyl]-3,4-dihydro-2H-quinolin-1-yl]-1H-quinazolin-2-one] | 0.0134 | 0.000399
[2H]C([2H])([2H])n1c(=O)nc(N(CC(F)F)c2cc(F)cc(C#CC3(C(F)(F)F)CC3)c2)c2c(F)c(F)ccc21 [Example 41, 4-[N-(2,2-difluoroethyl)-3-fluoro-5-[2-[1-(trifluoromethyl)cyclopropyl]ethynyl]anilino]-5,6-difluoro-1-(trideuteriomethyl)quinazolin-2-one] | 0.00963 | 0.001
[2H]C([2H])([2H])n1c(=O)nc(N2CCCc3c(C#CC4(C(F)(F)F)CC4)cccc32)c2c(F)c(F)ccc21 [Example 42, 5,6-difluoro-1-(trideuteriomethyl)-4-[5-[2-[1-(trifluoromethyl)cyclopropyl]ethynyl]-3,4-dihydro-2H-quinolin-1-yl]quinazolin-2-one] | 0.00948 | 0.000311
CC(C)(O)C#Cc1cccc2c1CCCN2c1nc(=O)[nH]c2cccc(F)c12 [Example 43, 5-fluoro-4-[5-(3-hydroxy-3-methyl-but-1-ynyl)-3,4-dihydro-2H-quinolin-1-yl]-1H-quinazolin-2-one] | 0.00184 | 0.00253
[2H]C([2H])([2H])n1c(=O)nc(N(CC(F)F)c2cc(F)cc(-c3cnc(C4CC4)cn3)c2)c2c(F)cccc21 [Example 44, 4-[3-(5-cyclopropylpyrazin-2-yl)-N-(2,2-difluoroethyl)-5-fluoro-anilino]-5-fluoro-1-(trideuteriomethyl)quinazolin-2-one] | 0.0112 | 0.00143
O=c1nc(N(CC(F)F)c2cncc(C#CC3(C(F)(F)F)CC3)c2)c2cc(F)ccc2[nH]1 [Example 45, 4-((2,2-difluoroethyl)(5-((1-(trifluoromethyl)cyclopropyl)ethynyl)pyridin-3-yl)amino)-6-fluoroquinazolin-2(1H)-one] | 0.0674 | 0.00618
O=c1nc(N(CC(F)F)c2cccc(C#CC3(C(F)(F)F)CC3)n2)c2cc(F)ccc2[nH]1 [Example 46, 4-((2,2-difluoroethyl)(6-((1-(trifluoromethyl)cyclopropyl)ethynyl)pyridin-2-yl)amino)-6-fluoroquinazolin-2(1H)-one] | 0.0869 | 0.0153
Cn1c(=O)nc(N(CC(F)F)c2cccc(C#CC3(C(F)(F)F)CC3)n2)c2cc(F)ccc21 [Example 47, 4-((2,2-difluoroethyl)(6-((1-(trifluoromethyl)cyclopropyl)ethynyl)pyridin-2-yl)amino)-6-fluoro-1-methylquinazolin-2(1H)-one] | 0.015 | 0.00137
O=c1nc(N(CC(F)F)c2cccc(C#CC3(C(F)(F)F)CC3)c2F)c2cc(F)ccc2[nH]1 [Example 48, 4-[N-(2,2-difluoroethyl)-2-fluoro-3-[2-[1-(trifluoromethyl)cyclopropyl]ethynyl]anilino]-6-fluoro-1H-quinazolin-2-one] | 0.0628 | 0.00529
CC(C)(C#Cc1cccc(N(CC(F)F)c2nc(=O)[nH]c3ccc(F)cc23)c1F)C(F)(F)F [Example 49, 4-[N-(2,2-difluoroethyl)-2-fluoro-3-(4,4,4-trifluoro-3,3-dimethyl-but-1-ynyl)anilino]-6-fluoro-1H-quinazolin-2-one] | 0.296 | 0.0053
O=c1nc(N(CC(F)F)c2cc(F)cc(C#CC3(C(F)(F)F)CC3)c2)c2cc(F)ccc2[nH]1 [Example 50, 4-[N-(2,2-difluoroethyl)-3-fluoro-5-[2-[1-(trifluoromethyl)cyclopropyl]ethynyl]anilino]-6-fluoro-1H-quinazolin-2-one] | 0.213 | 0.00181
[2H]C([2H])([2H])n1c(=O)nc(N(CC(F)F)c2cc(F)cc(C#CC3(C(F)(F)F)CC3)c2)c2cc(F)ccc21 [Example 51, 4-[N-(2,2-difluoroethyl)-3-fluoro-5-[2-[1-(trifluoromethyl)cyclopropyl]ethynyl]anilino]-6-fluoro-1-(trideuteriomethyl)quinazolin-2-one] | 0.0353 | 0.00075
COC(C)(C)C#Cc1cccc2c1CCCN2c1nc(=O)[nH]c2cccc(F)c12 [Example 52, 5-fluoro-4-[5-(3-methoxy-3-methyl-but-1-ynyl)-3,4-dihydro-2H-quinolin-1-yl]-1H-quinazolin-2-one] | 0.0129 | 0.000197
CC(C)(C)C(O)C#Cc1cccc2c1CCCN2c1nc(=O)[nH]c2cccc(F)c12 (stereo not shown) [Example 53, 5-fluoro-4-[5-(3-hydroxy-4,4-dimethyl-pent-1-ynyl)-3,4-dihydro-2H-quinolin-1-yl]-1H-quinazolin-2-one] | 0.0478 | 0.00274
CC(C)(O)CC#Cc1cccc2c1CCCN2c1nc(=O)[nH]c2cccc(F)c12 [Example 54, 5-fluoro-4-[5-(4-hydroxy-4-methyl-pent-1-ynyl)-3,4-dihydro-2H-quinolin-1-yl]-M-quinazolin-2-one] | 0.0236 | 0.00822
[2H]C([2H])([2H])n1c(=O)nc(N2CCCc3c(C#CC(C)(C)O)cccc32)c2c(F)cccc21 [Example 55, 5-fluoro-4-[5-(3-hydroxy-3-methyl-but-1-ynyl)-3,4-dihydro-2H-quinolin-1-yl]-1-(trideuteriomethyl)quinazolin-2-one] | 0.00582 | 0.00468
CCC(C)(O)C#Cc1cccc2c1CCCN2c1nc(=O)[nH]c2cccc(F)c12 (stereo not shown) [Example 56, 5-fluoro-4-[5-(3-hydroxy-3-methyl-pent-1-ynyl)-3,4-dihydro-2H-quinolin-1-yl]-1H-quinazolin-2-one] | 0.0319 | 0.00516
CCC(O)(C#Cc1cccc2c1CCCN2c1nc(=O)[nH]c2cccc(F)c12)CC [Example 57, 4-[5-(3-ethyl-3-hydroxy-pent-1-ynyl)-3,4-dihydro-2H-quinolin-1-yl]-5-fluoro-1H-quinazolin-2-one] | 0.15 | 0.00999
O=c1nc(N(CC(F)F)c2cccc(C#CC3(C(F)(F)F)CC3)c2F)c2c(F)cccc2[nH]1 [Example 58, 4-[N-(2,2-difluoroethyl)-2-fluoro-3-[2-[1-(trifluoromethyl)cyclopropyl]ethynyl]anilino]-5-fluoro-1H-quinazolin-2-one] | 0.0722 | 0.000285
CC(C)(O)C#Cc1cccc(N(CC(F)F)c2nc(=O)[nH]c3cccc(F)c23)c1F [Example 59, 4-[N-(2,2-difluoroethyl)-2-fluoro-3-(3-hydroxy-3-methyl-but-1-ynyl)anilino]-5-fluoro-M-quinazolin-2-one] | 0.00763 | 0.0145
